Where two headings read alike, the source gives them in different places.
Target: b-Raf (V600E) (Homo sapiens (Human), UniProt P15056, V600E)
Details: read-out: b-Raf IC-50, AlphaScreen
[1] = 60 min pre-incubation, reaction 3 hours at room temperature
[2] = 60 min pre-incubation, 3 hours reaction

Sequence of b-Raf (V600E) (P15056 whole entry V600E): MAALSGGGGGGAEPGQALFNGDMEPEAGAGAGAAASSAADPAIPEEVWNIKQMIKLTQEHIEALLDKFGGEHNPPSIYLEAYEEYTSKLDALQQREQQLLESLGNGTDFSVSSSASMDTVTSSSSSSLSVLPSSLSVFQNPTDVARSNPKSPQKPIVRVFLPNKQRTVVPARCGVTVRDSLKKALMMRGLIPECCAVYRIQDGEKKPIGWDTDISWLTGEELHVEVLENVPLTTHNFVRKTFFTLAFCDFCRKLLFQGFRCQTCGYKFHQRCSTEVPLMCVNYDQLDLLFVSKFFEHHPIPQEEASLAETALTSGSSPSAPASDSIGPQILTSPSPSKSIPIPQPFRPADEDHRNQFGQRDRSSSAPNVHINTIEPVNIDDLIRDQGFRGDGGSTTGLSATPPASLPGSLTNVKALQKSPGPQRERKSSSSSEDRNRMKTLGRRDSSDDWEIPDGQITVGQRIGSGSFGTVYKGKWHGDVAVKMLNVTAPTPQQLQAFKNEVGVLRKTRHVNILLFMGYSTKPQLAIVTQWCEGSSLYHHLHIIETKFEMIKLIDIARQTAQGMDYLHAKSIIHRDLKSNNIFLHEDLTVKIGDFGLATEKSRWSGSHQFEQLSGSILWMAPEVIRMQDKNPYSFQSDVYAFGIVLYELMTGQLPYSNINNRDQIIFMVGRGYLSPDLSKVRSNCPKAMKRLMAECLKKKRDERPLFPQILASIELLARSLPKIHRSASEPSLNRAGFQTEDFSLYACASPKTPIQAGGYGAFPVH
Text: Sf9 cells co-expressing both proteins were lysed and subjected to immobilized nickel chromatography and eluted with Imidazole. A second column (StrepII binding column) was used and eluted with desthiobiotin. Protein Tags were removed using Prescission enzyme and the protein was further purified using a flowthrough step to remove tags.
Full length MEK1 with an inactivating K97R ATP binding site mutation is utilized as a RAF substrate. The MEK1 cDNA was subcloned with an N-terminal (his)6 tag into a vector for E. Coli expression. The MEK1 substrate was purified from E. Coli lysate by nickel affinity chromatography followed by anion exchange. The final MEK1 preparation was biotinylated (Pierce EZ-Link Sulfo-NHS-LC-Biotin) and concentrated.
Assay buffer: 50 mM Tris, pH 7.5, 15 mM MgCl2, 0.01% Bovine Serum Albumin (BSA), 1 mM dithiothreitol (DTT) Stop buffer: 60 mM ethylenediaminetetraacetic acid (EDTA), 0.01% Tween® 20
biotinylated Mek, kinase dead
384 well low volume assay plates (White Greiner® plates)
biotinylated Mek, Kinase dead approximately 10 nM
Pre-incubation time with compounds 60 minutes at room temperature
Reaction time 1 or 3 hours at room temperature
The plate was incubated for 60 minutes at room temperature.
The additions were carried out under dark conditions to protect the detection beads from light. A lid was placed on top of the plate and incubated for 1 hour at room temperature, then the luminescence was read on a PerkinElmer Envision instrument.

Work on `CCn1cc(C(=O)Nc2ccc(C)c(-c3cc(N4CCOCC4)nc(N4CCOCC4)c3)c2)cc(C(F)(F)F)c1=O` [Example 1114, N-(3-(2,6-dimorpholinopyridin-4-yl)-4-methylphenyl)-1-ethyl-6-oxo-5-(trifluoromethyl)-1,6-dihydropyridine-3-carboxamide] yielded an IC50 [1] of 3.14 nM.
Compound `CCNc1nc(-c2cc(NC(=O)c3cccc(C(C)(C)C#N)c3)cnc2C)cc(N2CCOCC2)n1` [Example 726, 3-(2-cyanopropan-2-yl)-N-(5-(2-(ethylamino)-6-morpholinopyrimidin-4-yl)-6-methylpyridin-3-yl)benzamide] has an IC50 [2] of 9 nM.
With `CCOc1ncc(-c2cc(NC(=O)c3ccnc(C(C)C)c3)cnc2C)cc1N1CCOCC1` [Example 252, N-(6′-ethoxy-2-methyl-5′-morpholino-[3,3′-bipyridin]-5-yl)-2-isopropylisonicotinamide] the IC50 (Table 2, 3 hours reaction) was 3.1 nM.
`Cc1ccc(NC(=O)c2cccc(C(F)F)c2)cc1-c1cc(N2CCOCC2)c2nccn2n1` [Example 847, 3-(difluoromethyl)-N-(4-methyl-3-(8-morpholinoimidazo[1,2-b]pyridazin-6-yl)phenyl)benzamide] gave an IC50 [2] of 0.2 nM.
In the case of `COc1nnc(-c2cc(NC(=O)c3cnnc(C(C)(C)C#N)c3)ccc2C)cc1N1CCOCC1` [Example 557, 6-(2-cyanopropan-2-yl)-N-(3-(6-methoxy-5-morpholinopyridazin-3-yl)-4-methylphenyl)pyridazine-4-carboxamide], the IC50 [2] is reported as 5.4 nM.
With `Cc1ncc(C(=O)Nc2cccc(C(C)(C)C#N)c2)cc1-c1cc(N2CCOCC2)c(=O)n(C)c1` [Example 444, N-(3-(2-cyanopropan-2-yl)phenyl)-1′,2-dimethyl-5′-morpholino-6′-oxo-1′,6′-dihydro-[3,3′-bipyridine]-5-carboxamide] the IC50 [2] was 44.8 nM.
`Cc1ccc(C(=O)Nc2cccc(C(F)(F)F)c2)cc1-c1cc(N2CCOCC2)c2nccn2n1` [Example 888, 4-methyl-3-(8-morpholinoimidazo[1,2-b]pyridazin-6-yl)-N-(3-(trifluoromethyl)phenyl)benzamide] was tested, and the IC50 [1] was 1.6 nM.
Compound `Cc1ncc(NC(=O)c2ccnc(C(C)(C)F)c2)cc1-c1cc(N2CCOCC2)nc(N2CC(C)(O)C2)c1` [Example 1106, 2-(2-fluoropropan-2-yl)-N-(2′-(3-hydroxy-3-methylazetidin-1-yl)-2-methyl-6′-morpholino-[3,4′-bipyridin]-5-yl)isonicotinamide] has an IC50 [1] of 8.59 nM.
`CCOc1ncc(-c2cc(NC(=O)c3cccc(S(C)(=O)=O)c3)cnc2C)cc1N1CCOCC1` [Example 242, N-(6′-ethoxy-2-methyl-5′-morpholino-[3,3′-bipyridin]-5-yl)-3-(methylsulfonyl)benzamide] gave an IC50 (Table 2, 3 hours reaction) of 3.9 nM.
`Cc1ncc(NC(=O)c2ccnc(C(C)(C)C)c2)cc1-c1cc(N2CCOCC2)c(=O)n(C)c1` [Example 399, 2-(tert-butyl)-N-(1′,2-dimethyl-5′-morpholino-6′-oxo-1′,6′-dihydro-[3,3′-bipyridin]-5-yl)isonicotinamide] gave an IC50 (Table 2, 3 hours reaction) of 42.7 nM.
For `Cc1ccc(NC(=O)c2cccc(C(F)(F)F)c2)cc1-c1cc(N2CCS(=O)(=O)CC2)nc(N2CCOCC2)n1` [Example 6, N-(3-(6-(1,1-dioxidothiomorpholino)-2-morpholinopyrimidin-4-yl)-4-methylphenyl)-3-(trifluoromethyl)benzamide], the IC50 (Table 2, 3 hours reaction) was 1.3 nM.
`Cc1ncc(NC(=O)c2ccnc(C(C)(F)F)c2)cc1-c1cc(C2COCCO2)nc(N2CCOCC2)c1` (stereo not shown) [Example 1166, N-(2′-(1,4-dioxan-2-yl)-2-methyl-6′-morpholino-[3,4′-bipyridin]-5-yl)-2-(1,1-difluoroethyl)isonicotinamide] showed an IC50 [1] of 3.28 nM.
`Cc1ncc(NC(=O)c2ccc(C#N)c(C(F)(F)F)c2)cc1-c1cc(N2CCOCC2)c2nccn2c1` [Example 877, 4-cyano-N-(6-methyl-5-(8-morpholinoimidazo[1,2-a]pyridin-6-yl)pyridin-3-yl)-3-(trifluoromethyl)benzamide] was tested, and the IC50 [1] was 6.5 nM.
For `Cc1ncc(C(=O)Nc2cccc(C(F)(F)F)c2)cc1-c1cc(N2CCOCC2)c(=O)n(C)c1` [Example 443, 1′,2-dimethyl-5′-morpholino-6′-oxo-N-(3-(trifluoromethyl)phenyl)-1′,6′-dihydro-[3,3′-bipyridine]-5-carboxamide], the IC50 [2] was 6.2 nM.
`Cn1cc(-c2cc(C(=O)Nc3cccc(C(C)(C)O)c3)cnc2Cl)cc(N2CCOCC2)c1=O` [Example 424, 2-chloro-N-(3-(2-hydroxypropan-2-yl)phenyl)-t-methyl-5′-morpholino-6′-oxo-1′,6′-dihydro-[3,3′-bipyridine]-5-carboxamide] showed an IC50 (Table 2, 3 hours reaction) of 50.4 nM.
`Cc1ncc(NC(=O)c2cccc(C(F)(F)F)c2)cc1-c1cnc(C#N)c(N2CCOCC2)c1` [Example 222, N-(6′-cyano-2-methyl-5′-morpholino-[3,3′-bipyridin]-5-yl)-3-(trifluoromethyl)benzamide] gave an IC50 (Table 2, 3 hours reaction) of 3.8 nM.
Compound `Cc1ncc(NC(=O)c2ccnc(C(C)(C)F)c2)cc1-c1cc(N2CCOCC2)n2nccc2n1` [Example 790, 2-(2-fluoropropan-2-yl)-N-(6-methyl-5-(7-morpholinopyrazolo[1,5-a]pyrimidin-5-yl)pyridin-3-yl)isonicotinamide] has an IC50 [2] of 3.5 nM.
`CCNc1nc(-c2cc(NC(=O)c3ccnc(C(C)(C)C)c3)ccc2C)cc(N2CCOCC2)n1` [Example 696, 2-(tert-butyl)-N-(3-(2-(ethylamino)-6-morpholinopyrimidin-4-yl)-4-methylphenyl)isonicotinamide] gave an IC50 [2] of 2.4 nM.
With `Cc1ccc(NC(=O)c2cnnc(C(C)(C)C#N)c2)cc1-c1cc(N2CCOCC2)n2nccc2n1` [Example 795, 6-(2-cyanopropan-2-yl)-N-(4-methyl-3-(7-morpholinopyrazolo[1,5-a]pyrimidin-5-yl)phenyl)pyridazine-4-carboxamide] the IC50 [2] was 1.8 nM.
With `CCNc1nc(-c2cc(C(=O)Nc3ccccc3)ccc2C)cc(N2CCOCC2)n1` [Example 731, 3-(2-(ethylamino)-6-morpholinopyrimidin-4-yl)-4-methyl-N-phenylbenzamide] the IC50 [2] was 4.4 nM.
`Cc1ccc(NC(=O)c2ccnc(C(F)F)c2)cc1-c1cc(N2CCOCC2)c2nccn2c1` [Example 850, 2-(difluoromethyl)-N-(4-methyl-3-(8-morpholinoimidazo[1,2-a]pyridin-6-yl)phenyl)isonicotinamide] gave an IC50 [1] of 0.6 nM.
Work on `Cc1ccc(NC(=O)c2ccnc(C(C)(C)O)c2)cc1-c1cc(NCCO)nc(N2CCOCC2)c1F` [Example 1010, N-(3-(3-fluoro-6-((2-hydroxyethyl)amino)-2-morpholinopyridin-4-yl)-4-methylphenyl)-2-(2-hydroxypropan-2-yl)isonicotinamide] yielded an IC50 [1] of 28.9 nM.
`CCn1cc(C(=O)Nc2cnc(C)c(-c3cc(N4CCOCC4)nc(N4CCOCC4)c3)c2)cc(C(F)(F)F)c1=O` [Example 1125, 1-ethyl-N-(2-methyl-2′,6′-dimorpholino-[3,4′-bipyridin]-5-yl)-6-oxo-5-(trifluoromethyl)-1,6-dihydropyridine-3-carboxamide] was tested, and the IC50 [1] was 10 nM.
`CCNc1nc(-c2cc(C(=O)Nc3cccc(C(F)F)c3)ccc2C)cc(N2CCOCC2)n1` [Example 733, N-(3-(difluoromethyl)phenyl)-3-(2-(ethylamino)-6-morpholinopyrimidin-4-yl)-4-methylbenzamide] was tested, and the IC50 [2] was 0.8 nM.
For `Cc1ccc(NC(=O)c2ccnc(N3CCC3)c2)cc1-c1cc(N2CCOCC2)c(=O)n(C)c1` [Example 454, 2-(azetidin-1-yl)-N-(4-methyl-3-(1-methyl-5-morpholino-6-oxo-1,6-dihydropyridin-3-yl)phenyl)isonicotinamide], the IC50 [2] was 1.9 nM.
For `Cc1ccc(NC(=O)c2cccc(C(F)(F)F)c2)cc1-c1nc(N2CCOCC2)c2occc2n1` [Example 838, N-(4-methyl-3-(4-morpholinofuro[3,2-d]pyrimidin-2-yl)phenyl)-3-(trifluoromethyl)benzamide], the IC50 [2] was 0.9 nM.
`COC(=O)NC[C@@H](C)Oc1ncc(-c2cc(NC(=O)c3cccc(C(F)(F)F)c3)cnc2C)cc1N1CCOCC1` [Example 1003, (R)-methyl(2-((2′-methyl-5-morpholino-5′-(3-(trifluoromethyl)benzamido)-[3,3′-bipyridin]-6-yl)oxy)propyl)carbamate] was tested, and the IC50 [1] was 4.12 nM.
Compound `Cc1ncc(NC(=O)c2ccnc(C(F)F)c2)cc1-c1cc(NCCO)nc(N2CCOCC2)c1` [Example 1039, 2-(difluoromethyl)-N-(2′-((2-hydroxyethyl)amino)-2-methyl-6′-morpholino-[3,4′-bipyridin]-5-yl)isonicotinamide] has an IC50 [1] of 5.04 nM.
`Cc1ccc(NC(=O)c2cc(C(F)(F)F)ccn2)cc1-c1cc(OCCO)nc(N2CCOCC2)c1` [Example 1163, N-(3-(2-(2-hydroxyethoxy)-6-morpholinopyridin-4-yl)-4-methylphenyl)-4-(trifluoromethyl)picolinamide] was tested, and the IC50 [1] was 1.12 nM.
`Cc1ncc(NC(=O)c2cccc(C(F)(F)F)c2)cc1-c1cnc(CS(C)(=O)=O)c(N2CCOCC2)c1` [Example 327, N-(2-methyl-6′-((methylsulfonyl)methyl)-5′-morpholino-[3,3′-bipyridin]-5-yl)-3-(trifluoromethyl)benzamide] gave an IC50 (Table 2, 3 hours reaction) of 3.9 nM.
`Cc1ncc(NC(=O)c2ccnc(C(C)C)c2)cc1-c1cc(N2CCOCC2)c2nccn2c1` [Example 882, 2-isopropyl-N-(6-methyl-5-(8-morpholinoimidazo[1,2-a]pyridin-6-yl)pyridin-3-yl)isonicotinamide] gave an IC50 [1] of 8.1 nM.
With `Cc1ccc(NC(=O)c2cn(C)nc2C)cc1-c1cc(N2CCOCC2)c(=O)n(C)c1` [Example 366, 1,3-dimethyl-N-(4-methyl-3-(1-methyl-5-morpholino-6-oxo-1,6-dihydropyridin-3-yl)phenyl)-1H-pyrazole-4-carboxamide] the IC50 (Table 2, 3 hours reaction) was 100 nM.
For `Cc1ncc(NC(=O)c2ccnc(C(F)(F)F)c2)cc1-c1cncc(N2CCOCC2)c1` [Example 295], the IC50 (Table 2, 3 hours reaction) was 3.6 nM.
With `Cc1ccc(NC(=O)c2cc(CN)cc(C(F)(F)F)c2)cc1-c1cc(N2CCOCC2)c(=O)n(C)c1` [Example 470, 3-(aminomethyl)-N-(4-methyl-3-(1-methyl-5-morpholino-6-oxo-1,6-dihydropyridin-3-yl)phenyl)-5-(trifluoromethyl)benzamide] the IC50 [2] was 4.5 nM.
